Data published in the supplement of paper PMC11061612.

Columns and labels:
Assay in all cases: combination Emax (second highest fraction inhibited in the dose matrix, 72 h); higher = more inhibition; extreme values may be limits of the assay
[1] = tested on: PANC-10-05 (Pancreatic Carcinoma)
In short: (§1)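 Cell lines grown in DMEM/F12 or RPMI with 10% FBS were plated in 1536-well plates and held 24 hours at 37°C, 5% CO2 before 72 hours of exposure to two-drug dose matrices, with DMSO typically at 0.2%. CellTiter-Glo 2.0 luminescence gave viability, which was converted to inhibition. Vehicle wells were set to 0 and blank wells to 1. Combination Emax is the second-highest inhibition in the matrix, and Bliss excess is the observed combination effect minus the expected EA + EB − EA·EB, where EA and EB are the single-agent effects.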

[2] = tested on: A3-KAW (B-Cell Non-Hodgkin's Lymphoma)
In short: as §1

[3] = tested on: TT (Thyroid Gland Carcinoma)
In short: as §1

[4] = tested on: NCI-H1666 (Lung Adenocarcinoma)
In short: as §1

LN-405 (Glioblastoma) = tested on: LN-405 (Glioblastoma)
In short: as §1

PA-1 (Ovarian Carcinoma) = tested on: PA-1 (Ovarian Carcinoma)
In short: as §1

Row | SMILES | combination Emax [1] | combination Emax [2] | combination Emax [3] | combination Emax [4] | combination Emax (LN-405 (Glioblastoma)) | combination Emax (PA-1 (Ovarian Carcinoma))
1 | NC1(C(=O)N[C@@H](CCO)c2ccc(Cl)cc2)CCN(c2ncnc3[nH]ccc23)CC1 [Capivasertib] + Cn1cnc2c(F)c(Nc3ccc(Br)cc3Cl)c(C(=O)NOCCO)cc21 [Selumetinib] (first compound max 10 µM, 7x7, partner max 10 µM) | 0.727 | 0.698 | 0.587 | 0.623 | 0.539 | 0.884
2 | Cc1nc(Nc2ncc(C(=O)Nc3c(C)cccc3Cl)s2)cc(N2CCN(CCO)CC2)n1 [Dasatinib] + CC(=O)Nc1cccc(-n2c(=O)n(C3CC3)c(=O)c3c(Nc4ccc(I)cc4F)n(C)c(=O)c(C)c32)c1 [Trametinib] (first compound max 2 µM, 7x7, partner max 1 µM) | 0.877 | 0.464 | 0.441 | 0.651 | 0.468 | 0.936
3 | COc1cccc2c1C(=O)c1c(O)c3c(c(O)c1C2=O)C[C@@](O)(C(=O)CO)C[C@@H]3O[C@H]1C[C@H](N)[C@H](O)[C@H](C)O1 [Doxorubicin] + Cc1cc2ncnn2cc1Nc1ncc2c(n1)n(C1CCOCC1)c(=O)n2C [AZD7648] (first compound max 1 µM, 7x7, partner max 10 µM) | 0.715 | 0.984 | 0.604 | 0.825 | 0.335 | 0.892
4 | COc1cc2ncnc(Nc3ccc(F)c(Cl)c3)c2cc1OCCCN1CCOCC1 [Gefitinib] + CC(C)n1c(=O)n(C)c2cnc3cc(F)c(-c4ccc(OCCCN5CCCCC5)nc4)cc3c21 [AZD1390] (first compound max 10 µM, 7x7, partner max 0.3 µM) | 0.202 | 0.605 | 0.118 | 0.484 | 0.104 | 0.351
5 | CS(=O)(=O)CCNCc1ccc(-c2ccc3ncnc(Nc4ccc(OCc5cccc(F)c5)c(Cl)c4)c3c2)o1 [Lapatinib] + C[C@@H](Oc1cc(-c2cnn(C3CCNCC3)c2)cnc1N)c1c(Cl)ccc(F)c1Cl [Crizotinib] (first compound max 10 µM, 7x7, partner max 10 µM) | 0.675 | 0.968 | 0.409 | 0.833 | 0.493 | 1
6 | CC(=O)c1c(C)c2cnc(Nc3ccc(N4CCNCC4)cn3)nc2n(C2CCCC2)c1=O [Palbociclib] + CC1(C)CCC(CN2CCN(c3ccc(C(=O)NS(=O)(=O)c4ccc(NCC5CCOCC5)c([N+](=O)[O-])c4)c(Oc4cnc5[nH]ccc5c4)c3)CC2)=C(c2ccc(Cl)cc2)C1 [Venetoclax] (first compound max 10 µM, 7x7, partner max 1 µM) | 0.275 | 0.826 | 0.295 | 0.177 | 0.17 | 0.779
7 | CC(=O)c1c(C)c2cnc(Nc3ccc(N4CCNCC4)cn3)nc2n(C2CCCC2)c1=O [Palbociclib] + Cc1c2c(nn1C)CSCc1cc(n(C)n1)CSc1cc(c3ccccc3c1)OCCCc1c(C(=O)O)n(C)c3c-2c(Cl)ccc13 [AZD5991] (first compound max 10 µM, 7x7, partner max 1 µM) | 0.329 | 1 | 0.419 | 0.236 | 0.208 | 0.872
8 | CC(=O)c1c(C)c2cnc(Nc3ccc(N4CCNCC4)cn3)nc2n(C2CCCC2)c1=O [Palbociclib] + Cn1cnc2c(F)c(Nc3ccc(Br)cc3Cl)c(C(=O)NOCCO)cc21 [Selumetinib] (first compound max 10 µM, 7x7, partner max 10 µM) | 0.521 | 0.869 | 0.349 | 0.49 | 0.103 | 0.827
9 | COc1cccc(OCCCN)c1-c1cc(Nc2cnc(C#N)cn2)n[nH]1 [Prexasertib] + C=CCn1c(=O)c2cnc(Nc3ccc(N4CCN(C)CC4)cc3)nc2n1-c1cccc(C(C)(C)O)n1 [AZD1775] (first compound max 1 µM, partner max 1 µM) | 0.595 | 1 | 0.759 | 0.431 | 0.587 | 0.851
10 | COc1cccc(OCCCN)c1-c1cc(Nc2cnc(C#N)cn2)n[nH]1 [Prexasertib] + CCc1c2c(nc3ccc(O)cc13)-c1cc3c(c(=O)n1C2)COC(=O)[C@]3(O)CC [SN-38] (first compound max 1 µM, 7x7, partner max 0.3 µM) | 0.829 | 1 | 0.916 | 0.643 | 0.669 | 0.91
11 | COc1cccc(OCCCN)c1-c1cc(Nc2cnc(C#N)cn2)n[nH]1 [Prexasertib] + CN(C)CCCOc1ccc(-c2ccc3ncc4c(c3c2)n(C2CCOCC2)c(=O)n4C)cn1 [AZD0156] (first compound max 1 µM, 7x7, partner max 1 µM) | 0.4 | 1 | 0.676 | 0.35 | 0.516 | 0.725
12 | COc1cccc(OCCCN)c1-c1cc(Nc2cnc(C#N)cn2)n[nH]1 [Prexasertib] + C[C@@H]1COCCN1C2=NC(=NC(=C2)C3(CC3)[S@](=N)(=O)C)C4=C5C=CNC5=NC=C4 [AZD6738] (first compound max 1 µM, 7x7, partner max 10 µM) | 0.46 | 1 | 0.662 | 0.463 | 0.553 | 0.778
13 | COc1cccc(OCCCN)c1-c1cc(Nc2cnc(C#N)cn2)n[nH]1 [Prexasertib] + Cc1cc2ncnn2cc1Nc1ncc2c(n1)n(C1CCOCC1)c(=O)n2C [AZD7648] (first compound max 1 µM, 7x7, partner max 10 µM) | 0.522 | 1 | 0.611 | 0.334 | 0.445 | 0.734
14 | COc1cccc(OCCCN)c1-c1cc(Nc2cnc(C#N)cn2)n[nH]1 [Prexasertib] + O=C(c1cc(Cc2n[nH]c(=O)c3ccccc23)ccc1F)N1CCN(C(=O)C2CC2)CC1 [Olaparib] (first compound max 1 µM, 7x7, partner max 10 µM) | 0.31 | 1 | 0.59 | 0.26 | 0.592 | 0.706
15 | COc1cc2c(cc1OCCCCCOc1cc3c(cc1OC)C(=O)N1C=C(C)C[C@H]1C=N3)N=C[C@@H]1CC(C)=CN1C2=O [SG3199] + O=C(c1cc(Cc2n[nH]c(=O)c3ccccc23)ccc1F)N1CCN(C(=O)C2CC2)CC1 [Olaparib] (first compound max 0.001 µM, 7x7, partner max 10 µM) | 0.116 | 0.595 | 0.187 | 0.0849 | 0.301 | 0.324
16 | CCc1c2c(nc3ccc(O)cc13)-c1cc3c(c(=O)n1C2)COC(=O)[C@]3(O)CC [SN-38] + CN(C)CCCOc1ccc(-c2ccc3ncc4c(c3c2)n(C2CCOCC2)c(=O)n4C)cn1 [AZD0156] (first compound max 0.3 µM, 7x7, partner max 1 µM) | 0.73 | 1 | 0.827 | 0.626 | 0.259 | 0.845
17 | C[C@@H](c1ccc2nccn2c1)n1nnc2ncc(-c3cnn(C)c3)nc21 [Savolitinib] + CC1(C)CCC(CN2CCN(c3ccc(C(=O)NS(=O)(=O)c4ccc(NCC5CCOCC5)c([N+](=O)[O-])c4)c(Oc4cnc5[nH]ccc5c4)c3)CC2)=C(c2ccc(Cl)cc2)C1 [Venetoclax] (first compound max 1 µM, 7x7, partner max 1 µM) | 0.117 | 0.188 | 0.173 | 0.152 | 0.173 | 0.276
18 | C[C@@H](c1ccc2nccn2c1)n1nnc2ncc(-c3cnn(C)c3)nc21 [Savolitinib] + Cc1c2c(nn1C)CSCc1cc(n(C)n1)CSc1cc(c3ccccc3c1)OCCCc1c(C(=O)O)n(C)c3c-2c(Cl)ccc13 [AZD5991] (first compound max 1 µM, 7x7, partner max 1 µM) | 0.153 | 1 | 0.244 | 0.178 | 0.256 | 0.885
19 | Cn1cnc2c(F)c(Nc3ccc(Br)cc3Cl)c(C(=O)NOCCO)cc21 [Selumetinib] + C=CCn1c(=O)c2cnc(Nc3ccc(N4CCN(C)CC4)cc3)nc2n1-c1cccc(C(C)(C)O)n1 [AZD1775] (first compound max 10 µM, partner max 1 µM) | 0.546 | 0.953 | 0.305 | 0.538 | 0.148 | 0.875
20 | Cn1cnc2c(F)c(Nc3ccc(Br)cc3Cl)c(C(=O)NOCCO)cc21 [Selumetinib] + CC(C)n1c(=O)n(C)c2cnc3cc(F)c(-c4ccc(OCCCN5CCCCC5)nc4)cc3c21 [AZD1390] (first compound max 10 µM, 7x7, partner max 0.3 µM) | 0.402 | 0.408 | 0.201 | 0.529 | 0.129 | 0.276
21 | Cn1cnc2c(F)c(Nc3ccc(Br)cc3Cl)c(C(=O)NOCCO)cc21 [Selumetinib] + CCN(CCO)CCCOc1ccc2c(Nc3cc(CC(=O)Nc4cccc(F)c4)[nH]n3)ncnc2c1 [AZD2811] (first compound max 10 µM, 7x7, partner max 1 µM) | 0.464 | 0.597 | 0.453 | 0.506 | 0.242 | 0.654
22 | Cn1cnc2c(F)c(Nc3ccc(Br)cc3Cl)c(C(=O)NOCCO)cc21 [Selumetinib] + C[C@@H]1COCCN1C2=NC(=NC(=C2)C3(CC3)[S@](=N)(=O)C)C4=C5C=CNC5=NC=C4 [AZD6738] (first compound max 10 µM, 7x7, partner max 10 µM) | 0.613 | 1 | 0.316 | 0.516 | 0.405 | 0.855
23 | CC(=O)Nc1cccc(-n2c(=O)n(C3CC3)c(=O)c3c(Nc4ccc(I)cc4F)n(C)c(=O)c(C)c32)c1 [Trametinib] + Cc1nc(-c2cn3c(n2)-c2ccc(-c4cnn(C(C)(C)C(N)=O)c4)cc2OCC3)n(C(C)C)n1 [Taselisib] (first compound max 1 µM, 7x7, partner max 10 µM) | 0.838 | 0.726 | 0.666 | 0.988 | 0.76 | 1
24 | CC1(C)CCC(CN2CCN(c3ccc(C(=O)NS(=O)(=O)c4ccc(NCC5CCOCC5)c([N+](=O)[O-])c4)c(Oc4cnc5[nH]ccc5c4)c3)CC2)=C(c2ccc(Cl)cc2)C1 [Venetoclax] + C1CN(CCC1(C(=O)N[C@@H](CCO)C2=CC=C(C=C2)Cl)N)C3=NC=NC4=C3C=CN4 [Capivasertib] (first compound max 1 µM, 7x7, partner max 3 µM) | 0.273 | 0.282 | 0.681 | 0.287 | 0.429 | 0.636
